The results in this text go back to ChEMBL document CHEMBL3272157, “Cephalosporin derivatives with 2- and 4-pyridone groups at carbon-3” (1979).

Values after ≈ are worked out from the molar mass of the structure shown. Active and inactive are the calls of the source. The calls are words filed in the database; no cut-off is given here.

The test system of experiment [1] is Proteus mirabilis. In words: In vitro antibacterial activity against Proteus mirabilis assessed as growth inhibition after 17 hrs by serial two-fold dilution technique. Type of experiment: functional.
Experiment [2] relates to Serratia marcescens. In words: In vitro antibacterial activity against cephalosporins-resistant Serratia marcescens assessed as growth inhibition after 17 hrs by serial two-fold dilution technique. The experiment is classed as functional, organism-based.
For experiment [3], the system named is Streptococcus pyogenes. In words: In vivo antibacterial activity against Streptococcus pyogenes infected in sc dosed albino CD-1 mouse assessed as protection against bacterial infection by measuring host survival administered at 1 hr and 4 hrs after infection. Type of experiment: functional.
Experiment [4] deals with Klebsiella pneumoniae. The experiment is described as follows: In vitro antibacterial activity against Klebsiella pneumoniae assessed as growth inhibition after 17 hrs by serial two-fold dilution technique. The experiment is classed as functional.
The test system of experiment [5] is Streptococcus pasteurianus. In words: In vitro antibacterial activity against Streptococcus pasteurianus assessed as growth inhibition after 17 hrs by serial two-fold dilution technique. Type of experiment: functional.
Experiment [6] relates to Providencia stuartii. The experiment is described as follows: In vitro antibacterial activity against cephalosporins-resistant Providencia stuartii assessed as growth inhibition after 17 hrs by serial two-fold dilution technique. Type of experiment: functional, organism-based.
Experiment [7] has as its system Streptococcus pneumoniae. The experiment is described as follows: In vitro antibacterial activity against Streptococcus pneumoniae assessed as growth inhibition after 17 hrs by serial two-fold dilution technique. Type of experiment: functional.
In experiment [8] the test system is Streptococcus pyogenes. The experiment is described as follows: In vitro antibacterial activity against Streptococcus pyogenes assessed as growth inhibition after 17 hrs by serial two-fold dilution technique. The experiment is classed as functional.
Experiment [9] has as its system Enterobacter cloacae. The experiment is described as follows: In vitro antibacterial activity against cephalosporins-resistant Enterobacter cloacae assessed as growth inhibition after 17 hrs by serial two-fold dilution technique. The experiment is classed as functional, organism-based.
The subject of experiment [10] is Klebsiella aerogenes. The experiment is described as follows: In vitro antibacterial activity against cephalosporins-resistant Enterobacter aerogenes assessed as growth inhibition after 17 hrs by serial two-fold dilution technique. Type of experiment: functional, organism-based.
Experiment [11] has as its system Escherichia coli. In words: In vitro antibacterial activity against Escherichia coli assessed as growth inhibition after 17 hrs by serial two-fold dilution technique. Type of experiment: functional.
In experiment [12] the test system is Staphylococcus epidermidis. The experiment is described as follows: In vitro antibacterial activity against benzylpenicillin-resistant Staphylococcus epidermidis assessed as growth inhibition after 17 hrs by serial two-fold dilution technique. The experiment is classed as functional.
Experiment [13] relates to Streptococcus pasteurianus. The experiment is described as follows: In vivo antibacterial activity against Streptococcus pasteurianus infected in sc dosed albino CD-1 mouse assessed as protection against bacterial infection by measuring host survival administered at 1 hr and 4 hrs after infection. Type of experiment: functional.
The subject of experiment [14] is Pseudomonas aeruginosa. In words: In vitro antibacterial activity against cephalosporins-resistant Pseudomonas aeruginosa assessed as growth inhibition after 17 hrs by serial two-fold dilution technique. Type of experiment: functional, organism-based.
The subject of experiment [15] is Escherichia coli. In words: In vivo antibacterial activity against Escherichia coli infected in sc dosed albino CD-1 mouse assessed as protection against bacterial infection by measuring host survival administered at 1 hr and 4 hrs after infection. Type of experiment: functional.
The test system of experiment [16] is Staphylococcus aureus. In words: In vitro antibacterial activity against benzylpenicillin-resistant Staphylococcus aureus assessed as growth inhibition after 17 hrs by serial two-fold dilution technique. The experiment is classed as functional.
In experiment [17] the test system is Salmonella. In words: In vitro antibacterial activity against Salmonella schottmuelleri assessed as growth inhibition after 17 hrs by serial two-fold dilution technique. The experiment is classed as functional.
For experiment [18], the system named is Proteus vulgaris. The experiment is described as follows: In vitro antibacterial activity against cephalosporins-resistant Proteus vulgaris assessed as growth inhibition after 17 hrs by serial two-fold dilution technique. Type of experiment: functional, organism-based.
Experiment [19] concerns Staphylococcus aureus. The experiment is described as follows: In vitro antibacterial activity against Staphylococcus aureus assessed as growth inhibition after 17 hrs by serial two-fold dilution technique. The experiment is classed as functional.
In experiment [20] the test system is Streptococcus pyogenes. In words: In vivo antibacterial activity against Streptococcus pyogenes infected in po dosed albino CD-1 mouse assessed as protection against bacterial infection by measuring host survival administered at 1 hr and 4 hrs after infection. Type of experiment: functional.
The subject of experiment [21] is Salmonella. In words: In vivo antibacterial activity against Salmonella schottmuelleri infected in sc dosed albino CD-1 mouse assessed as protection against bacterial infection by measuring host survival administered at 1 hr and 4 hrs after infection. Type of experiment: functional.

On to `N[C@@H](C(=O)N[C@@H]1C(=O)N2C(C(=O)O)=C(Cn3ccccc3=O)CS[C@H]12)c1ccccc1`, for which the MIC is above 100 µg/mL in experiment [1]; 6.2 µg/mL (≈ 14.1 µM) in experiment [4]; 0.2 µg/mL (≈ 0.454 µM) in experiment [5]; 50 µg/mL (≈ 114 µM) in experiment [7]; 0.8 µg/mL (≈ 1.82 µM) in [8]; 25 µg/mL (≈ 56.8 µM) in [11]. The MIC came out at 6.2 µg/mL (≈ 14.1 µM) in experiment [12], 6.2 µg/mL (≈ 14.1 µM) in experiment [16], 12.5 µg/mL (≈ 28.4 µM) in [17] and 1.6 µg/mL (≈ 3.63 µM) in experiment [19]. Further, the “growth inhibition (GI)” value in experiment [2], in [6], in experiment [9], in experiment [10], in experiment [14] and in experiment [18] was “inactive” each time. In addition, the ED50 was above 0.5 mg/kg in [3]; 14 mg/kg in experiment [13]; 8.4 mg/kg in experiment [15]; above 8 mg/kg in [20]; 10 mg/kg in experiment [21].

Regarding `N[C@@H](C(=O)N[C@@H]1C(=O)N2C(C(=O)O)=C(Cn3ccc(=O)cc3)CS[C@H]12)c1ccccc1`, the MIC in [1] is 50 µg/mL (≈ 114 µM); in experiment [4] it was 12.5 µg/mL (≈ 28.4 µM); in experiment [5], 0.4 µg/mL (≈ 0.908 µM); in [7], 100 µg/mL (≈ 227 µM); in experiment [8] it was 1.6 µg/mL (≈ 3.63 µM); in experiment [11], 12.5 µg/mL (≈ 28.4 µM). In addition, the MIC is 25 µg/mL (≈ 56.8 µM) in experiment [12], 50 µg/mL (≈ 114 µM) in [16], 12.5 µg/mL (≈ 28.4 µM) in experiment [17] and 3.1 µg/mL (≈ 7.04 µM) in [19]. Besides, the “growth inhibition (GI)” value in [2], in experiment [6], in experiment [9], in experiment [10], in [14] and in [18] was “inactive” in each case. The ED50 in experiment [3] was above 0.5 mg/kg; in experiment [15] it was 4.6 mg/kg; in experiment [20], above 8 mg/kg; in experiment [21] it was 5 mg/kg.

For the compound `CC1=C(C(=O)O)N2C(=O)[C@@H](NC(=O)[C@H](N)c3ccccc3)[C@H]2SC1` [CEPHALEXIN ANHYDROUS], the MIC in experiment [1] was 25 µg/mL (≈ 72 µM); in [4], 3.1 µg/mL (≈ 8.92 µM); in experiment [5], 1.6 µg/mL (≈ 4.61 µM); in experiment [7], above 100 µg/mL; in experiment [8], 0.8 µg/mL (≈ 2.3 µM); in [11], 6.2 µg/mL (≈ 17.8 µM). In addition, the MIC in [12] came out at 12.5 µg/mL (≈ 36 µM); in experiment [16] it was 6.2 µg/mL (≈ 17.8 µM); in experiment [17], 6.2 µg/mL (≈ 17.8 µM); in experiment [19], 1.6 µg/mL (≈ 4.61 µM). In addition, the ED50 in experiment [3] is 3.4 mg/kg; in experiment [13], 38.7 mg/kg; in [15] it was 5.6 mg/kg; in [20], 1.2 mg/kg; in experiment [21] it was 8.2 mg/kg.
